The results in this text go back to EP0097072A1, “Derivatives of benzylsulfinyl acetamides, their therapeutic use and process for their preparation” (LABORATOIRE L. LAFON Société anonyme dite:, priority 1982, dated 1983).

What all share (assay type): in vivo
The subject of series [1] is souris mâle. The experiment in a line: Toxicity: DL-0 (maximal non-lethal dose). The following applies: male mouse, I.P. route. How it is done:
(§1) Les résultats des essais qui ont été entrepris ont été résumés ci-après. Dans ces essais, le CRL 40569 (produit de l'exemple 1) en suspension dans une solution aqueuse de gomme arabique, et le CRL 40615 (produit de l'exemple 2) en solution dans de l'eau distillée ont été administrés par voie intrapéritonéale sous un volume de 20 ml/kg chez la souris mâle et sous un volume de 5 ml/kg chez le rat mâle.
La DL-0 (dose maximale non mortelle) chez la souris mâle par voie I.P. pour les CRL 40569 et CRL 40615 est supérieure à 1024 mg/kg.

The test system of series [2] is souris. Put plainly: Action on spontaneous motility (actimeter). The following applies: mouse, recorded 30 min, starting half an hour after dosing. How it is done: as §1
Une demi-heure après avoir reçu les produits à tester, les souris (6 par dose et par produit, 12 témoins pour chaque produit) sont placées en actimètre ou leur motilité est enregistrée pendant 30 minutes.

For another series, the system named is rats. Put plainly: Interaction with amphetamine (amphetamine stereotypies). The following applies: rat, 256 mg/kg I.P.; amphetamine 2 mg/kg I.P. half an hour after the compound. As for the experimental part: as §1
Des lots de 6 rats reçoivent une injection par voie I.P. de 2 mg/kg d'amphétamine une demi-heure après le CRL 40569.

Series [3] has as its system souris mâle. Put plainly: Global behaviour and reactivities in the mouse. The following applies: I.P., 512 mg/kg, observed 15 min to 24 h after administration. How it is done: as §1
(§2) Des lots de 3 animaux par dose et par produit sont observés avant,puis 15 minutes, 30 minutes, 1 h, 2h, 3h et 24 h après administration des CRL 40569 et CRL 40615.

The test system of another series is rat mâle. Put plainly: Global behaviour and reactivities in the rat. The following applies: I.P. How it is done: as §1, §2
Series [4] deals with souris. The experiment in a line: Action on intergroup aggressiveness (number of fights). The following applies: mouse, notably at 512 mg/kg I.P.; groups joined half an hour after dosing, fights counted over 10 minutes. As for the experimental part: as §1
Après avoir séjourné pendant 3 semaines de part et d'autre d'une cloison opaque séparant leur cage par le milieu, des groupes de 3 souris reçoivent le CRL 40615. Une demi-heure plus tard, les deux groupes d'une même cage sont réunis par retrait de la cloison et ou note le nombre de combats qui surviennent en 10 minutes.

As to `COc1ccc(C[S+]([O-])CC(N)=O)cc1` (stereo not shown) [CRL 40569, 4-méthoxybenzylsulfinyl-acétamide], the “DL-0 (dose maximale non mortelle)” value in the series on souris mâle [1] was greater than 1024 mg/kg. In the series with souris [2] (I.P., 32, 128 and 512 mg/kg), the “motilité spontanée” value is reported as “diminution de la motilité spontanée”. The “intensité des stéréotypies amphétaminiques” value with rats is given as “diminue légèrement l'intensité des stéréotypies amphétaminiques”. Also, the “comportement global et réactivités” value is listed as “diminution fugace de la réactivité au toucher, de la force et du tonus musculaire” in the series on souris mâle [3]; “n'a entraîné des modifications nettes du comportement et des réactivités” in the series with rat mâle (at none of the doses used (256, 64, 16 and 4 mg/kg)).

Take `COc1ccc(C[S+]([O-])CC(=O)NCCN2CCOCC2)cc1` (stereo not drawn) [CRL 40615, N-β-morpholinoéthyl-4-méthoxybenzylsulfinyl-acétamide]: in the series with souris mâle [1], the “DL-0 (dose maximale non mortelle)” value is reported as greater than 1024 mg/kg. Also, the “motilité spontanée” value in the series on souris [2] (I.P., high dose (512 mg/kg)) is recorded as “diminue la motilité spontanée”. In addition, the “comportement global et réactivités” value in the series with souris mâle [3] (128 mg/kg and 32 mg/kg) is “sédation pendant 15 à 30 minutes puis une excitation tardive qui se manifeste 24 h après administration”; with rat mâle (256 mg/kg) it was “diminution du tonus musculaire”. In addition, the nombre de combats result with souris [4] was “diminue le nombre de combats”.
